Measured values taken from paper PMC6018554, “2-[2-(4-(trifluoromethyl)phenylamino)thiazol-4-yl]acetic acid (Activator-3) is a potent activator of AMPK” (Scientific Reports, 2018).
“Also recorded” adds a separate entry of the source.

What was measured:
PFK1 = test: PFK activity assay kit; assay type: biochemical; conditions: Activator-3 at 10 µM (≤10 µM)
[1] = target: T1, recombinant human AMPK α2β2γ2 (Homo sapiens, UniProt Q9UGJ0); test: In vitro AMP kinase assay (pACC ELISA), α2β2γ2; assay type: biochemical
T1 construct: purchased SignalChem; host or cells: baculovirus expression
Source text: (§1) Having observed the effect of Activator-3 on the activation of AMPK in cell based assays, we next examined whether Activator-3 could activate AMPK directly or not. […] The activity of recombinant human AMPK (α1β1γ1, α2β1γ1, α2β2γ2 and α2β2γ3) in the presence of vehicle was considered as 100%. The EC50 of Activator-3 for the activation of α1β1γ1, α2β1γ1 and α2β2γ2 isozymes were similar. However, the activity of Activator-3 against α2β2γ3 was marginally higher (Fig. 1C).
(§2) A high binding Enzyme Immuno Assay (EIA) 96-well plate (Sigma: Cat# CLS3590) was coated with Acetyl CoA Carboxylase 2 (ACC: 175–271 amino acids) peptide, a direct substrate for AMPK, 100 ng per well (1:1000 ratio, Cat# 12–491, Upstate biotechnology) and incubated overnight at 25 °C. Reaction mixture was incubated at 30 °C for 2 h and reaction was stopped by washing the plate with 0.05% Tween 20 followed by incubation with pACC primary antibody and rabbit secondary antibody as described in cell based ELISA section. Assay buffer is composed of 10 mM DTT, 100 mM magnesium acetate, 50 μM ATP and 10 mM HEPES.

[2] = Human plasma protein binding; assay type: in vitro ADME; conditions: data not shown
[3] = target: T2, recombinant human AMPK α2β2γ3 (Homo sapiens, UniProt Q9UGI9); test: In vitro AMP kinase assay (pACC ELISA), α2β2γ3; assay type: biochemical
T2 construct: purchased SignalChem; host or cells: baculovirus expression
Source text: as §1, §2

[4] = target: T3, recombinant human AMPK α1β1γ1 (Homo sapiens, UniProt P54619); test: In vitro AMP kinase assay (pACC ELISA), α1β1γ1; assay type: biochemical
T3 construct: purchased SignalChem P47-10H-05/P48-10H-05 (for all four isozymes together); host or cells: baculovirus expression
Source text: as §1, §2

[5] = target: human recombinant AMPK α2β1γ1 (Homo sapiens, UniProt P54619); test: Phosphatase protection assay (PP2C); assay type: biochemical; set-up: host or cells: baculovirus expression; conditions: 10–100 nM
Method: The reaction was stopped by adding SDS-loading dye immediately to the reaction mixtures followed by boiling the samples at 95 °C for 10′. These samples were run on a 10% SDS-PAGE and probed for AMPK and pAMPK (1:1000; Cell Signaling Technologies).

[6] = system: panel of 100 protein kinases; test: Cell-free kinase panel (Kinexus), whole panel; assay type: biochemical; conditions: 10 µM
Method: To determine whether Activator-3 affects the activity of any other protein kinases, we screened it in cell-free assays against a panel of 100 protein kinases (Kinexus, Canada). […] Three kinases, DDR1 (−79%), SRC (−71%) and ALK5 (−61%) were inhibited by Activator-3 by more than 50% at 10 µM.

[7] = Activator-3 1 nM to 10 μM with 100 µM AMP

T3 sequence (P54619 whole entry): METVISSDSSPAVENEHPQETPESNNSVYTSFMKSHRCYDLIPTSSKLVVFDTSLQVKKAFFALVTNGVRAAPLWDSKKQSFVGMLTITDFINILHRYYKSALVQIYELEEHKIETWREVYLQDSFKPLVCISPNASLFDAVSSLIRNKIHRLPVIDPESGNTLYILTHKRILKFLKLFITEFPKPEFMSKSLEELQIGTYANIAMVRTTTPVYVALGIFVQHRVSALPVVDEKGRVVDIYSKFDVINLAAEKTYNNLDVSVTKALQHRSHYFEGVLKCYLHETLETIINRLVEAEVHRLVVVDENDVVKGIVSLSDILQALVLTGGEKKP
T3 sequence (Q13131 whole entry partner): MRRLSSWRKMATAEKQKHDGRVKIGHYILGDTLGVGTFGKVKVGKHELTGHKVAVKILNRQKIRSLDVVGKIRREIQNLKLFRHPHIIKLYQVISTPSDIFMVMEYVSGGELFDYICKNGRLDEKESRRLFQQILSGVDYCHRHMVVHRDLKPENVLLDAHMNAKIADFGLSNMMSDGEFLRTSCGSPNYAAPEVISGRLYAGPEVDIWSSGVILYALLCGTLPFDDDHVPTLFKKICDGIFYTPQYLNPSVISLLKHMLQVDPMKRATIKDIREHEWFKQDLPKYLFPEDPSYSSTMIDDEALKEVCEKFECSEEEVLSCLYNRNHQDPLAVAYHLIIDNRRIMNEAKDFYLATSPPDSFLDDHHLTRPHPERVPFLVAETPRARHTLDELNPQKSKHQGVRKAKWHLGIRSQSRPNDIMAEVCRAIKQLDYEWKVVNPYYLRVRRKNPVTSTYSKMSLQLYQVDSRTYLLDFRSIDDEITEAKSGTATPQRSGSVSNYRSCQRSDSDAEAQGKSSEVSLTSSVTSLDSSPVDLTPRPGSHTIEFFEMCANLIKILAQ
T3 sequence (Q9Y478 whole entry partner): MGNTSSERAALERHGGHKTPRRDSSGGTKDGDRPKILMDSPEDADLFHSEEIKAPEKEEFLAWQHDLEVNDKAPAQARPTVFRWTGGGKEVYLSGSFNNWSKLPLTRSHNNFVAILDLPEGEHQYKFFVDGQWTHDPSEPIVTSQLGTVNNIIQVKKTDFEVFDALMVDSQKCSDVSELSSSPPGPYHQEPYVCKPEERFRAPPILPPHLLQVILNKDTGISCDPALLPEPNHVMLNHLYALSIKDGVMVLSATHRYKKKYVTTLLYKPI
T2 sequence (Q9UGI9 whole entry): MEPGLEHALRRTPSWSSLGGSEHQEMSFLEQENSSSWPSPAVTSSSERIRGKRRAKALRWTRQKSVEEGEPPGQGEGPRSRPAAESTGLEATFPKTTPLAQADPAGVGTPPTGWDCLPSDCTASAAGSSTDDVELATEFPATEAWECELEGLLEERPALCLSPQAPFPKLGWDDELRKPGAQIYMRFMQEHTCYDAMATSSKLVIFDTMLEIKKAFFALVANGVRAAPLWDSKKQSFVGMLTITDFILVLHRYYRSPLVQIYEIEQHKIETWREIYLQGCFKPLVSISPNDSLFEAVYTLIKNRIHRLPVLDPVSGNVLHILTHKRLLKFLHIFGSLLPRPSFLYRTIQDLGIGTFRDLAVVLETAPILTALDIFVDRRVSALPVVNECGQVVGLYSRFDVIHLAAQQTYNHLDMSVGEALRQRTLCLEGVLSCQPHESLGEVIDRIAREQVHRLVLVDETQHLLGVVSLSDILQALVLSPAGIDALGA
T2 sequence (P54646 whole entry partner): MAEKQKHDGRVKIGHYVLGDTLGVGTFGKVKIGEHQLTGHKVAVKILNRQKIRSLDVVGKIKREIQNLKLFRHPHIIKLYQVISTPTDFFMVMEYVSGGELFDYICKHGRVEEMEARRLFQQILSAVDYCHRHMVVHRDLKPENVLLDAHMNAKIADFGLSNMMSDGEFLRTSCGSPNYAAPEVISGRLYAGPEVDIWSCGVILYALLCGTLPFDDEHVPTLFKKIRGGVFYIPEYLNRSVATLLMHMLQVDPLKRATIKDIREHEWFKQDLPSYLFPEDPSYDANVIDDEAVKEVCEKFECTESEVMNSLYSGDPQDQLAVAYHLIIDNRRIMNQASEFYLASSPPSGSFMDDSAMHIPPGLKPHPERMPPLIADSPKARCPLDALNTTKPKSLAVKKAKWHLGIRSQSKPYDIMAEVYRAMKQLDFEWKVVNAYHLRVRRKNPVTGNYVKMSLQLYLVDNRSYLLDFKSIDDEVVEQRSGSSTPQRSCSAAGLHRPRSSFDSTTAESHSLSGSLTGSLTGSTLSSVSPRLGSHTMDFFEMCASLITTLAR
T2 sequence (O43741 whole entry partner): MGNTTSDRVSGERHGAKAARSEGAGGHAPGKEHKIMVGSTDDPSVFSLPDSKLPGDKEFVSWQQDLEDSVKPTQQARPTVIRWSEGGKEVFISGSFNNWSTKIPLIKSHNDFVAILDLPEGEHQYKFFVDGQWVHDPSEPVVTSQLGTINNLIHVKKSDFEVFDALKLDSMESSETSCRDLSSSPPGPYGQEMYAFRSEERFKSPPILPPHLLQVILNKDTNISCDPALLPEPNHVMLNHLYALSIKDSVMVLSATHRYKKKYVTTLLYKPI
T1 sequence (Q9UGJ0 whole entry): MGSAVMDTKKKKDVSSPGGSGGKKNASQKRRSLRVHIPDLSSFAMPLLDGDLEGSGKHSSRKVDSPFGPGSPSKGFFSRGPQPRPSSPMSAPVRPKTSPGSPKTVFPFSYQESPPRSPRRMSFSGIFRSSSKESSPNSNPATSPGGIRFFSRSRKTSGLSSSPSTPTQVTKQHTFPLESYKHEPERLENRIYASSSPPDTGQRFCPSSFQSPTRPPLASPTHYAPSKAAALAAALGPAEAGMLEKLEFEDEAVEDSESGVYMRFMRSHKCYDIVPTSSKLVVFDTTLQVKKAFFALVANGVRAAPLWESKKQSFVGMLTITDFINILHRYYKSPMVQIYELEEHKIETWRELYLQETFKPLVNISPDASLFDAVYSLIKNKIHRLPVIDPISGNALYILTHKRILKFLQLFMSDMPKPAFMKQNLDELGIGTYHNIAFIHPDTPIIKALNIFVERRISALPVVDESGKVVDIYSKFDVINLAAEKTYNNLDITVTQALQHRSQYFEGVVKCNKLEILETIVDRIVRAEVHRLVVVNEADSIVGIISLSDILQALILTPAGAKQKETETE
T1 sequence (P54646 whole entry partner): as the sequence (P54646 whole entry partner) above
T1 sequence (O43741 whole entry partner): as the sequence (O43741 whole entry partner) above
Chain of human recombinant AMPK α2β1γ1 (P54619 whole entry): as the sequence (P54619 whole entry) above
Chain of human recombinant AMPK α2β1γ1 (P54646 whole entry partner): as the sequence (P54646 whole entry partner) above
Chain of human recombinant AMPK α2β1γ1 (Q9Y478 whole entry partner): as the sequence (Q9Y478 whole entry partner) above

O=C(O)Cc1csc(Nc2ccc(C(F)(F)F)cc2)n1 [Activator-3, 2-[2-(4-(trifluoromethyl)phenylamino)thiazol-4-yl]acetic acid]
effect on PFK1 activity (PFK1): unaffected; also recorded: no effect | change of AMPK activity stimulated by 100 µM AMP [1, 7]: minimal decrease | EC50 ([1]; read-out: EC50 allosteric activation hα2β2γ2): ~0.026 µM | fraction unbound [2]: ~0.2 | increase of AMPK activity over 100 µM AMP alone ([3]; co-treatment Activator-3 and 100 µM AMP): > 30% | EC50 ([3]; read-out: EC50 allosteric activation hα2β2γ3): ~0.004 µM | cooperativity of AMPK activation at high ATP ([4]; ATP 2 mM vs 20 µM, Activator-3 0–1 µM): does not exhibit co-operative binding | reduction of AMPK activity stimulated by 100 µM AMP [4, 7]: ~ 50% | EC50 ([4]; read-out: EC50 allosteric activation hα1β1γ1): ~0.038 µM | protection against PP2C mediated dephosphorylation of Thr172 AMPK [5]: provided protection | effect on kinase activity, majority of panel [6]: not affected
